Columns and labels:
[1] = tested on: Acinetobacter spp. (ABCC); test: Culture (Cx) susceptibility result, respiratory specimens; assay type: cell-based, Acinetobacter sp.; settings: ABCC specimen (specimen id not given)
Description: (§1) DHMC specimens were 7-21 days old. […] Controls used standard culturing methods (Cx).
(§2) (ABCC). Concurrent quantitative culture (qCx) was performed on specimens.

[2] = tested on: Acinetobacter spp. (ABCC); test: MADM resistance phenotype test, respiratory specimens; assay type: cell-based, Acinetobacter sp.; settings: ABCC specimen (specimen id not given)
[3] = tested on: Pseudomonas aeruginosa (PSAE); test: Culture (Cx) susceptibility result, respiratory specimens; assay type: cell-based
Description: as §1, §2

[4] = tested on: Pseudomonas aeruginosa (PSAE); test: MADM resistance phenotype test, respiratory specimens; assay type: cell-based; settings: PSAE
Description: as §2
20 μL samples of prepared specimen were pipetted into independent flowcell channels and a low-voltage electrical field was applied for 5 minutes. The electrical field concentrated bacteria onto a functional surface coating that immobilized the bacteria on the lower flowcell surface. Each flowcell channel received only one type of test reagent solution that contained a selective agent if required (only for channels used to test AB, sulbactam 32 μg/mL).
The instrument acquired images at 10-minutes intervals for 180 minutes, using 10 fields of view in each flowcell channel through a 20× objective. Imaging used darkfield illumination. Identification variables included response to selective agents (AB with sulbactam), cell morphology, growth morphology, and growth rate.
Identification algorithms applied to each individual immobilized bacterial cell. The system measured the amount of change in mass over time to compute growth rates. Identification consisted of computing and combining probability scores for morphology, response to selective media, and growth rates to produce a receiver operating characteristic curve (ROC) to derive classification criteria.

C[C@@H](O)[C@H]1C(=O)N2C(C(=O)O)=C(SCCN=CN)C[C@H]12 [IMP, imipenem]
S: Cx (culture result) susceptibility [1] | MADM resistance phenotype [2] | Cx (culture result) susceptibility ([3]; specimen DH 430, Mini-BAL) | Cx (culture result) susceptibility ([3]; specimen DH 554, BAL) | Cx (culture result) susceptibility ([3]; specimen DH 641, Mini-BAL) | MADM resistance phenotype ([4]; specimen DH 430, Mini-BAL) | MADM resistance phenotype ([4]; specimen DH 554, BAL) | MADM resistance phenotype ([4]; specimen DH 641, Mini-BAL)
